# Assay results from publication PMC9788509, “Arginine Homopeptide of 11 Residues as a Model of Cell-Penetrating Peptides in the Interaction with Bacterial Membranes” (Membranes, 2022).
# Tested on: blood samples obtained from a healthy individual
# Assay type: cell-based
# Method: The hemolytic activity of the peptides was obtained, according to a previously described procedure. Briefly, blood samples obtained from a healthy individual were centrifuged at 2000 g for 10 min at 4 °C and then washed with PBS 1X three times. The supernatant was diluted with PBS 1X until reaching a concentration of 6 × 10^8 cells/mL. Assays were performed in duplicate with the peptides at concentrations of 5 and 50 µM, including AMP from Bothrops asper. Triton X-100 (Sigma Aldrich) at 0.5% was used as positive control and PBS 1X as negative control. The assay is performed by mixing 65 µL of the cell suspension with 65 µL of each peptide at the indicated concentrations, and 65 µL of each control, incubating at 37 °C for 1 h. The samples are centrifuged at 3000 g for 5 min; 80 µL of supernatant is taken and placed in a 96-well plate together with 80 µL of milliQ water to finally measure its absorbance at 540 nm.
# Hemolysis is calculated according to Equation (1). (1) %Hemolysis=[…]
substance,measurement,value
triton X-100,Hemolytic activity,hemolysis was only observed
